IC50 data for 54 compounds are collected here from PubChem BioAssay AID2771 (The Scripps Research Institute Molecular Screening Center, 2010).

Calls of active or inactive are those of the source. How the calls were made is not given here.

The target in the assay is Signal transducer and activator of transcription 3 (Homo sapiens) (UniProt P40763). In words: STAT3 inhibitors in luciferase reporter cells, late-stage follow-up, counter-screen for STAT1 inhibitor project, cell-based, luminescence, dose response (AID 2771). The following applies: STAT3-responsive luciferase reporter cells.
In the case of `CCOc1ccc2oc(=O)cc(CSc3nc4ccccc4c(=O)[nH]3)c2c1`, the IC50 was > 55.7 µM (inactive).
In the case of `CN1CCN(C=C2Nc3ccccc3C(=O)N2Cc2nc(C34CC5CC(CC(C5)C3)C4)cs2)CC1` it was > 55.7 µM (inactive).
In the case of `O=C(Nc1ccc(F)cc1)C(c1ccccc1)N1CCN(C(=O)c2ccccc2)CC1` (centres undefined) it was > 55.7 µM (inactive); in that of `CCC(C(=O)Nc1ccccc1)N1CCN(S(=O)(=O)c2ccc3c(c2)CCC3)CC1` (centres undefined), > 55.7 µM (inactive); in that of `COc1cc2c(cc1OC)C(=O)N(Cc1nnc(-c3ccc(Cl)cc3)o1)C(=CN1CCOCC1)N2`, > 55.7 µM (inactive).
For `N#Cc1ccccc1S(=O)(=O)N1CCN(C(C(=O)Nc2ccc(F)cc2)c2ccccc2)CC1` (centres undefined) the value was > 55.7 µM (inactive); for `N#Cc1ccc(S(=O)(=O)N2CCN(C(C(=O)Nc3ccc(F)cc3)c3ccccc3)CC2)cc1` (centres undefined), > 55.7 µM (inactive).
Regarding `CN(C)Cc1nc2ccccc2c(=O)n1Cc1nc(C(C)(C)C)cs1`, the IC50 is > 55.7 µM (inactive).
Consider `COc1cccc(-c2csc(Cn3c(CN4CCOCC4)nc4ccccc4c3=O)n2)c1`, for which the IC50 is > 55.7 µM (inactive).
Consider `COc1ccc(C)cc1NC(=O)C(c1ccccc1)N1CCN(S(=O)(=O)c2ccc(F)cc2)CC1` (centres undefined), for which the IC50 is > 55.7 µM (inactive).
Take `Cc1ccc(C)c(NC(=O)C(c2ccccc2)N2CCN(S(=O)(=O)c3ccccc3C#N)CC2)c1` (centres undefined): the IC50 is > 55.7 µM (inactive).
For `CC(C(=O)Nc1ccc(F)c(F)c1)N1CCN(S(=O)(=O)c2ccc(C(F)(F)F)cc2)CC1` (centres undefined), the IC50 was > 18.6 µM (inactive).
Consider `CC(C(=O)Nc1ccccc1)N1CCN(S(=O)(=O)c2ccccc2)CC1` (centres undefined), for which the IC50 was > 55.7 µM (inactive).
As for `CCOC(=O)c1ccc(S(=O)(=O)N2CCN(C(C(=O)Nc3ccc(OC)c(Cl)c3)c3ccccc3)CC2)cc1` (centres undefined), the IC50 was > 55.7 µM (inactive).
Consider `NC(=O)c1ccc(S(=O)(=O)N2CCN(C(C(=O)Nc3ccc(F)cc3)c3ccccc3)CC2)cc1` (centres undefined), for which the IC50 is > 55.7 µM (inactive).
In the case of `CCOC(=O)Nc1ccc2c(CSc3nc4ccccc4c(=O)[nH]3)cc(=O)oc2c1` it was > 55.7 µM (inactive).
On to `COc1cc2c(cc1OC)C(=O)N(Cc1cc(-c3ccccc3OC)no1)C(=CN1CCOCC1)N2`, for which the IC50 entry was “inactive”.
On to `Cc1ccc(C)c(S(=O)(=O)N2CCN(C(C(=O)Nc3ccc(F)cc3)c3ccccc3)CC2)c1` (centres undefined), for which the IC50 is > 55.7 µM (inactive).
`O=C(O)c1nn(-c2ccc(F)cc2)c(=O)c2ccccc12`: the IC50 was > 55.7 µM (inactive).
For `C=C1NN(c2ccc(C(=O)N3CCC(Cc4ccccc4)CC3)cc2)C(=O)c2ccccc21`, the IC50 entry was “inactive”.
As to `O=C(c1ccc(-n2c(=S)[nH]c3ccccc3c2=O)cc1)N1CCN(C2CCCCC2)CC1`, the IC50 is > 55.7 µM (inactive).
Take `O=C(c1ccc(-n2c(=S)[nH]c3ccccc3c2=O)cc1)N1CCN(c2ccccc2)CC1`: the IC50 was > 55.7 µM (inactive).
In the case of `O=c1c2ccccc2nc(CN2CCOCC2)n1Cc1nc(-c2ccc[nH]2)cs1`, the IC50 is > 55.7 µM (inactive).
Consider `Cc1ccc2oc(=O)cc(CSc3nc(-c4ccccc4)c4ccccc4n3)c2c1`, for which the IC50 is > 55.7 µM (inactive).
On to `Cc1cc2oc(=O)cc(CSc3nc4ccccc4c(=O)[nH]3)c2cc1Cl`, for which the IC50 was > 55.7 µM (inactive).
Turning to `CN(Cc1ccccc1N1CCCC1)C(=O)c1nn(-c2ccccc2)c(=O)c2ccccc12`, the IC50 is > 55.7 µM (inactive).
Turning to `CN1CCN(Cc2nc3ccccc3c(=O)n2Cc2nc(-c3ccccc3F)cs2)CC1`, the IC50 was > 55.7 µM (inactive).
Turning to `O=C1c2ccccc2N/C(=C\N2CCOCC2)N1Cc1nc(-c2ccc(F)c(F)c2)cs1`, the IC50 was > 18.6 µM (inactive).
For the compound `CCC(C)c1ccc(-c2csc(CN3C(=O)c4ccccc4N/C3=C\N3CCN(C)CC3)n2)cc1` (centres undefined), the IC50 was > 55.7 µM (inactive).
Consider `COc1cc2c(cc1OC)C(=O)N(Cc1coc(-c3ccccc3)n1)C(=CN1CCOCC1)N2`, for which the IC50 was > 55.7 µM (inactive).
Take `CNC(=O)c1nn(-c2ccc(F)cc2)c(=O)c2ccccc12`: the IC50 is > 55.7 µM (inactive).
In the case of `O=C(c1ccc(-n2c(=S)[nH]c3ccccc3c2=O)cc1)N1CCN(c2ccc(F)cc2)CC1` it was > 55.7 µM (inactive); in that of `Cc1ccc(-n2nc(C(=O)O)c3ccccc3c2=O)cc1Cl`, > 55.7 µM (inactive).
Consider `O=C(c1ccc(-n2c(=S)[nH]c3ccccc3c2=O)cc1)N1CCN(C(=O)c2ccco2)CC1`, for which the IC50 is > 55.7 µM (inactive).
Take `CCOc1ccc(-c2csc(Cn3c(CN4CCN(C)CC4)nc4ccccc4c3=O)n2)cc1`: the IC50 is > 55.7 µM (inactive).
With `COc1ccc(N2CCN(C(=O)c3ccc(-n4c(=S)[nH]c5ccccc5c4=O)cc3)CC2)cc1`, the IC50 is > 55.7 µM (inactive).
In the case of `O=C(Nc1ccc(F)cc1)C(c1ccccc1)N1CCN(S(=O)(=O)c2ccccc2)CC1` (centres undefined) it was > 55.7 µM (inactive); in that of `CCOc1ccccc1NC(=O)C(c1ccccc1)N1CCN(S(=O)(=O)c2ccc(F)c(F)c2F)CC1` (centres undefined), > 55.7 µM (inactive).
With `COc1cccc(NC(=O)C(c2ccccc2)N2CCN(S(=O)(=O)c3ccc(C)cc3)CC2)c1` (centres undefined), the IC50 is > 55.7 µM (inactive).
On to `Cc1ccc(-n2nc(C(=O)O)c3ccccc3c2=O)cc1C`, for which the IC50 is > 55.7 µM (inactive).
For `CC(=O)c1ccc(S(=O)(=O)N2CCN(C(C(=O)Nc3ccc(C)cc3)c3ccccc3)CC2)cc1` (centres undefined) the value was > 55.7 µM (inactive).
`CN(C)Cc1nc2ccccc2c(=O)n1Cc1nc(-c2cccc([N+](=O)[O-])c2)cs1`: the IC50 was > 55.7 µM (inactive).
Turning to `O=C(Nc1ccc(Cl)c(C(F)(F)F)c1)C(c1ccccc1)N1CCN(S(=O)(=O)c2ccccc2)CC1` (centres undefined), the IC50 is > 55.7 µM (inactive).
Consider `COC(=O)c1nn(-c2ccc(F)cc2)c(=O)c2ccccc12`, for which the IC50 was > 55.7 µM (inactive).
Turning to `CN(C)C(=O)c1nn(-c2ccc(F)cc2)c(=O)c2ccccc12`, the IC50 was > 55.7 µM (inactive).
As for `O=C(Nc1ccc(F)cc1)C(c1ccccc1)N1CCN(S(=O)(=O)c2ccc3c(c2)OCCO3)CC1` (centres undefined), the IC50 is > 55.7 µM (inactive).
`O=C(Nc1ccc(F)cc1)C(c1ccccc1)N1CCN(S(=O)(=O)c2ccc3ccccc3c2)CC1` (centres undefined): the IC50 was > 55.7 µM (inactive).
For `O=C1c2ccccc2N/C(=C\N2CCOCC2)N1Cc1nc(-c2ccccc2F)cs1` the value was > 55.7 µM (inactive).
Consider `O=c1cc(CSc2nc3ccccc3c(=O)[nH]2)c2ccc(O)cc2o1`, for which the IC50 was > 55.7 µM (inactive).
In the case of `Cc1ccc(NC(=O)C(c2ccccc2)N2CCN(S(=O)(=O)c3ccccc3)CC2)cc1` (centres undefined), the IC50 is > 55.7 µM (inactive).
On to `O=C(OCC1CCCCC1)c1nn(-c2ccccc2)c(=O)c2ccccc12`, for which the IC50 was > 55.7 µM (inactive).
On to `CCOC(=O)N1CCN(C(=O)c2ccc(-n3c(=S)[nH]c4ccccc4c3=O)cc2)CC1`, for which the IC50 is > 55.7 µM (inactive).
`CN1CCN(Cc2nc3ccccc3c(=O)n2Cc2nc(-c3cccc([N+](=O)[O-])c3)cs2)CC1`: the IC50 is > 55.7 µM (inactive).
As to `CN1CCN(C(=O)c2ccc(-n3c(=S)[nH]c4ccccc4c3=O)cc2)CC1`, the IC50 is > 55.7 µM (inactive).

As usually defined, the IC50 is the concentration that inhibits the measured activity by half.
